# Test results as given in paper PMC9733664 (Blood cells, molecules & diseases, 2021).
# What was measured:
# [1] = test system: HbF and HbS protein in SCD erythroid progenitors; test: Western blot for HbF and HbS protein in sickle erythroid progenitors; format: cell-based, human
# [2] = test system: γ-globin mRNA in K562 cells; test: γ-globin mRNA induction in K562 cells; format: cell-based, human; conditions: 48 h, CT108 3 μM, CT-101 5 μM, ST-20 20 μM, valproic acid 1 mM and 2 mM, vs control
# [3] = molecular target: T1, HDAC6 (Homo sapiens, UniProt Q9UBN7); test: In vitro HDAC inhibition assay; format: biochemical; conditions: 10-dose IC50 mode
# T1 sequence (Q9UBN7 1-1215): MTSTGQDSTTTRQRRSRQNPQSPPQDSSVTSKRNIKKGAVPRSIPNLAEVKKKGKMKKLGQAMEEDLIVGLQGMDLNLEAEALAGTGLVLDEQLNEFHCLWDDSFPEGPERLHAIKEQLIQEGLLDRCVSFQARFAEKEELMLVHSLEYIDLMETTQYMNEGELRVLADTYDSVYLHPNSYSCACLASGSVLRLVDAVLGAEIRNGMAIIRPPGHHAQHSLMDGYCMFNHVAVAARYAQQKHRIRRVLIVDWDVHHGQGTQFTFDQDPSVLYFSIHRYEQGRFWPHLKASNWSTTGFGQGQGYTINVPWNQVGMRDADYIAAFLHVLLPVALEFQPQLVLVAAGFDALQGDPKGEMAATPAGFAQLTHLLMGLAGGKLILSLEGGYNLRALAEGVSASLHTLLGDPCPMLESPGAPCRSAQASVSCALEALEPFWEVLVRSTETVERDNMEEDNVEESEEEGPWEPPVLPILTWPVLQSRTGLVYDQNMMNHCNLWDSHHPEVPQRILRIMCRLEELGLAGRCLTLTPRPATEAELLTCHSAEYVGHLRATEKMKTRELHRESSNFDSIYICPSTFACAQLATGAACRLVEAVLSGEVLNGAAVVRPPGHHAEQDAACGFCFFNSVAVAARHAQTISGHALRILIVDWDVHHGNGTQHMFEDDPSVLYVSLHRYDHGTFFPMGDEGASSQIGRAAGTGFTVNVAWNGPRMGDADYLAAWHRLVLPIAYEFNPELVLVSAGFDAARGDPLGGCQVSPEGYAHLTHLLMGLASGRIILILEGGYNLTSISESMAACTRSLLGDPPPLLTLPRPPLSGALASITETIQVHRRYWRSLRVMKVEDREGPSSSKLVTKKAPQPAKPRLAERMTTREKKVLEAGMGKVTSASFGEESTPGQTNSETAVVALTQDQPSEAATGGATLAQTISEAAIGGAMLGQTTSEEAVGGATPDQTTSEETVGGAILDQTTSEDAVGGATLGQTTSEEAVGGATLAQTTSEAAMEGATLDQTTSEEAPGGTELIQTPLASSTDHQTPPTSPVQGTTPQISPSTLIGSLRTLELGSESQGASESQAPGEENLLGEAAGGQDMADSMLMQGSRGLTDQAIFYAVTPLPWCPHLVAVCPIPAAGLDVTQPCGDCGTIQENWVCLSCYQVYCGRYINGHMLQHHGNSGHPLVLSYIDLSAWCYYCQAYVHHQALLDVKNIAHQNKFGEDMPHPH
# [4] = test system: acetylated histone H3 (acH3); test: Western blot for nuclear acetylated histone H3 in sickle erythroid progenitors; format: cell-based, human
# [5] = test system: Class I HDAC (HDAC 1-3); test: In vitro HDAC inhibition assay; format: biochemical
# [6] = test system: K562 cells; test: Cell growth/proliferation of K562 cells; format: cell-based, human; conditions: over the concentration range tested
# [7] = test system: SCD erythroid progenitors; test: Erythroid maturation and growth of sickle erythroid progenitors; format: cell-based, human; conditions: 5 days of treatment (day 12)
# [8] = test system: HbF in SCD erythroid progenitors; test: Flow cytometry for F-cells and HbF MFI in sickle erythroid progenitors; format: cell-based, human; conditions: for mean F-cells: vehicle 5.8%
# [9] = test system: γ-globin and β-globin mRNA in SCD erythroid progenitors; test: Globin mRNA in sickle erythroid progenitors; format: cell-based, human; conditions: for increase in γ-globin mRNA: day 7 to day 12, n = 6 SCD subjects, vs vehicle
# [10] = test system: Class IIa and Class IV HDAC isoforms; test: In vitro HDAC inhibition assay; format: biochemical; conditions: 10-dose IC50 mode
# [11] = test system: acH3 and RNA PolII at γ-globin promoter, β-globin promoter, LCR-HS2; format: cell-based, human; conditions: for RNA PolII and acH3 chromatin enrichment in the LCR-HS2: Fig. 5E
# [12] = test system: HbF; conditions: SCD patients, intravenous; cited from earlier work
# [13] = test system: HDACs 1-9, and 11; test: In vitro HDAC inhibition assay, profile over all isoforms tested; conditions: heat map Fig. 1A
# [14] = nine SCD subjects, 10 mg per day, 3 days per week; ref NCT01245179; cited from earlier work
# [15] = test system: HbF; conditions: three patients with Hodgkin's lymphoma, 3 months of therapy; cited from earlier work
structure (smiles),measurement,setting,value
CCCCCCCC(=O)SCC/C=C/[C@@H]1CC(=O)NCc2nc(cs2)C2=N[C@@](C)(CS2)C(=O)N[C@@H](C(C)C)C(=O)N1 [CT-101],HbF level increase by Western blot,"[1]; 200 nM, vs untreated control progenitors, p < 0.01",up to 1.7 fold
same,HbS protein level,"[1]; Western blot, Fig. 3C",not significantly changed
same,γ-globin mRNA / HbF expression induction,[2],11 fold
same,inhibition of HDAC6,[3],Some inhibition
same,increase in acH3 level,"[4]; 100 nM, n = 6",1.8 fold
same,increase in acH3 level,"[4]; 200 nM, n = 6",2.0 fold
same,IC50,"[5]; read-out: IC50 as Class I HDACi, lowest level over Class I isoforms",≥ 4 nM
same,IC50 for HDAC 1-3,"[5]; singlet 10-dose IC50 mode, 3-fold serial dilution, active free thiol form tested",nanomolar concentrations
same,cell proliferation,[6],did not inhibit cell proliferation
same,decrease in number of orthochromatic erythroid cells,[7]; 100 nM,42%
same,decrease in number of orthochromatic erythroid cells,[7]; 200 nM,56%
same,mean F-cells,"[8]; 100 nM, p < 0.01",8.1%
same,mean F-cells,"[8]; 200 nM, p < 0.001",7.4%
same,mean increase in the proportion of F-cells,"[8]; vs DMSO vehicle controls, same subject",30%
same,increase in γ-globin mRNA,[9]; 100 nM,3.9 fold
same,increase in γ-globin mRNA,[9]; 200 nM,7 fold
same,β-globin transcription,[9]; sickle erythroid progenitors,did not alter
same,inhibition of Class IIa and Class IV isoforms,[10],little to no inhibition
same,acH3 chromatin enrichment in the γ-globin promoter,"[11]; CT-101 100 mM and 200 nM, 48 h",3.8 fold
same,RNA PolII and acH3 chromatin enrichment in the LCR-HS2,[11],increased
same,RNA PolII and acH3 chromatin enrichment in the β^s-globin proximal promoter,[11]; vs vehicle treated cells,not changed
"NC(=O)NO [HU, hydroxyurea, reference compound]",HbF level increase by Western blot,"[1]; HU 75 μM, vs untreated control",1.3 fold
CCCC(=O)O.CCCC(=O)O.CCCC(=O)O.CCCC(=O)O.N=C(N)NCCC[C@H](N)C(=O)O.N=C(N)NCCC[C@H](N)C(=O)O.N=C(N)NCCC[C@H](N)C(=O)O [arginine butyrate],enhancement of HbF levels,[12],3 fold
O=C(/C=C/c1cccc(S(=O)(=O)Nc2ccccc2)c1)NO [belinostat],HDAC isoform inhibition profile / selectivity,[13],inhibited most HDAC isoforms to some degree
Cc1[nH]c2ccccc2c1CCNCc1ccc(/C=C/C(=O)NO)cc1 [panobinostat],tolerability,[14],without dose limiting or serious adverse effects
same,increase in HbF,[15],2 fold
same,HDAC isoform inhibition profile / selectivity,[13],inhibited most HDAC isoforms to some degree
"CCCC(=O)[O-].[Na+] [sodium butyrate, reference compound]",HbF level increase by Western blot,"[1]; sodium butyrate 0.2 μM, vs untreated control",1.4 fold
same,increase in acH3 level,[4]; sodium butyrate,3 fold
same,decrease of β-globin mRNA level,"[9]; sodium butyrate 0.2 μM, day 7 to day 12",80%
same,RNA PolII and acH3 chromatin enrichment in the LCR-HS2,[11],increased
